Assay [1] has as its target T1, Human CARM1 (PRMT4) (Homo sapiens, UniProt Q86X55).
T1 construct: Flag-CARM1-His; made in house; host or cells: HEK 293F cells (BacMam baculovirus, pFastBacMam)
T1 sequence (Q86X55 2-585 isoform Q86X55-1): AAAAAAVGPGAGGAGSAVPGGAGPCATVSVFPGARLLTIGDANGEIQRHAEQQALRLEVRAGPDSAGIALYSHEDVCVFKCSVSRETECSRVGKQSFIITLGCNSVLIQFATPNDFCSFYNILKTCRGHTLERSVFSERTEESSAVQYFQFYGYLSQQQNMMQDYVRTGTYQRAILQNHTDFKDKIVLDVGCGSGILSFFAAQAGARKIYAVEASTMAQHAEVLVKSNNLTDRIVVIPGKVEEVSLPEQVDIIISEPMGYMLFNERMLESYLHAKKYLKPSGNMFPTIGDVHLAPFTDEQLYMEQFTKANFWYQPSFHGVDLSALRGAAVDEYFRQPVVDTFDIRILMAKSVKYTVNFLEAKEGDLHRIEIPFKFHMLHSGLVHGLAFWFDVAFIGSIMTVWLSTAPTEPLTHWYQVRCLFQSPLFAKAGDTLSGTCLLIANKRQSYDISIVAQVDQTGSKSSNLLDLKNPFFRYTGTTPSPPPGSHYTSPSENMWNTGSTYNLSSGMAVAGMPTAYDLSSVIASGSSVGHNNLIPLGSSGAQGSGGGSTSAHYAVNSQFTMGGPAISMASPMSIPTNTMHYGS
The experiment in a line: CARM1 biochemical assay (3H-SAM Flashplate, peptide substrate). As to conditions: read-out: CARM1_ IC50. The text has this: S-adenosylmethionine (SAM), S-adenosylhomocysteine (SAH), bicine, Tween20, dimethylsulfoxide (DMSO), bovine skin gelatin (BSG), sodium butyrate and Tris(2-carboxyethyl)phosphine hydrochloride solution (TCEP) were purchased from Sigma-Aldrich at the highest level of purity possible. ^3H-SAM was purchase from American Radiolabeled Chemicals with a specific activity of 80 Ci/mmol. 384-well streptavidin Flashplates were purchased from PerkinElmer.
Peptide representative of human histone H3 residues 16-30 was synthesized with an N-terminal linker-affinity tag motif and a C-terminal amide cap by 21st Century Biochemicals. The peptide was purified by high-performance liquid chromatography (HPLC) to greater than 95% purity and confirmed by liquid chromatography mass spectrometry (LC-MS). The sequence was Biot-Ahx-[…]-amide and contained a monomethylated arginine at position 26 (SEQ ID NO.: 14).
Human CARM1 (PRMT4) (NM_199141.1) transcript clone was amplified from an HEK 293 cDNA library, incorporating a flanking 5′ sequence encoding a FLAG tag ([…]) (SEQ ID NO.: 6) fused directly to Ala 2 of CARM1 and 3′ sequence encoding a hexa His sequence ([…]) (SEQ ID NO.: 15) fused directly to Ser 608. The gene sequence encoding isoform1 containing a deletion of amino acids 539-561 was amplified subsequently and subcloned into pFastBacMam (Viva Biotech).
Recombinant baculovirus were generated according to Bac-to-Bac kit instructions (Life Technologies). […] Infections were carried out at 37° C. for 48 hours, harvested by centrifugation, and stored at −80° C. for purification.
Column was washed with 500 mM NaCl in buffer A and Flag-CARM1-His was eluted with 200 ug/ml FLAG peptide in buffer A. Pooled fractions were dialyzed in 20 mM Tris, 150 mM NaCl, 5% glycerol and 1 mM DTT, pH 7.8. The purity of recovered protein was 94.
General Procedure for CARM1 Enzyme Assays on Peptide Substrates.
The assays were all performed in a buffer consisting of 20 mM Bicine (pH=7.6), 1 mM TCEP, 0.005% BSG, and 0.002% Tween 20, prepared on the day of use. Compounds in 100% DMSO (1 ul) were spotted into a polypropylene 384-well V-bottom plates (Greiner) using a Platemate Plus outfitted with a 384-channel head (Thermo Scientific). DMSO (1 ul) was added to Columns 11, 12, 23, 24, rows A-H for the maximum signal control and 1 ul of SAH, a known product and inhibitor of CARM1, was added to columns 11, 12, 23, 24, rows I-P for the minimum signal control. A cocktail (40 ul) containing the CARM1 enzyme was added by Multidrop Combi (Thermo-Fisher). The compounds were allowed to incubate with CARM1 for 30 min at room temperature, then a cocktail (10 ul) containing ^3H-SAM and peptide was added to initiate the reaction (final volume=51 ul). The final concentrations of the components were as follows: CARM1 was 0.25 nM, ^3H-SAM was 30 nM, peptide was 250 nM, SAH in the minimum signal control wells was 1 mM, and the DMSO concentration was 2%. The assays were stopped by the addition of non-radiolabeled SAM (10 ul) to a final concentration of 300 uM, which dilutes the ^3H-SAM to a level where its incorporation into the peptide substrate is no longer detectable. 50 ul of the reaction in the 384-well polypropylene plate was then transferred to a 384-well Flashplate and the biotinylated peptides were allowed to bind to the streptavidin surface for at least 1 hour before being washed once with 0.1% Tween20 in a Biotek ELx405 plate washer. The plates were then read in a PerkinElmer TopCount plate reader to measure the quantity of ^3H-labeled peptide bound to the Flashplate surface, measured as disintegrations per minute (dpm) or alternatively, referred to as counts per minute (cpm).
Where dpm=disintegrations per minute, cmpd=signal in assay well, and min and max are the respective minimum and maximum signal controls.
Where top and bottom are the normally allowed to float, but may be fixed at 100 or 0 respectively in a 3-parameter fit. […]

Assay [2] has as its system asymmetric di-methyl PABP1 in RKO cells. The assay can be described thus: In Cell Western (ICW) for asymmetric di-methyl PABP1 and DNA content in RKO cells. In kind it is cell-based. As to conditions: In Cell Western. The text has this:
RKO adherent cells were purchased from ATCC (American Type Culture Collection), Manassas, Va., USA. DMEM/Glutamax medium, penicillin-streptomycin, heat inactivated fetal bovine serum, 0.05% trypsin and D-PBS were purchased from Life Technologies, Grand Island, N.Y., USA. Odyssey blocking buffer, 800CW goat anti-rabbit IgG (H+L) antibody, and Licor Odyssey infrared scanner were purchased from Licor Biosciences, Lincoln, Nebr., USA. Mono-methyl arginine antibody was purchased from Cell Signaling Technology, Danvers, Mass., USA. Methanol was purchased from VWR, Franklin, Mass., USA. 10% Tween 20 was purchased from KPL, Inc., Gaithersburg, Md., USA. […] was purchased from Biostatus Limited, Leicestershire, UK. RKO adherent cells were maintained in growth medium (DMEM/Glutamax medium supplemented with 10% v/v heat inactivated fetal bovine serum and 100 units/mL penicillin-streptomycin) and cultured at 37° C. under 5% CO2. Cell Treatment, in Cell Western (ICW) for Detection of Asymmetric Di-Methyl PABP1 and DNA Content. RKO cells were seeded in assay medium at a concentration of 30,000 cells per mL to a poly-D-lysine coated 384 well culture plate (BD Biosciences 356697) with 50 μL per well. Compound (100 nL) from a 96-well source plate was added directly to 384 well cell plate. Plates were incubated at 37° C., 5% CO2 for 48 hours. After two days of incubation, plates were brought to room temperature outside of the incubator for ten minutes and blotted on paper towels to remove cell media. Cells were fixed for 20 minutes at room temperature by adding 50 μl of 8% PFA followed by aspiration of supernatant with the Biotek EL406 plate washer. Cells were then permeabilized by addition of 50 μL of ice cold 100% methanol directly to each well and incubated for 30 min at room temperature. After 30 min, plates were transferred to a Biotek EL406 plate washer and washed 2 times with 100 μL per well of wash buffer (1×PBS). Next 60 μL per well of Odyssey blocking buffer (Odyssey Buffer with 0.1% Tween 20 (v/v)) were added to each plate and incubated 1 hour at room temperature. Blocking buffer was removed and 20 μL per well of primary antibody was added (asymmetric-methyl PABP1) diluted 1:400 in Odyssey buffer with 0.1% Tween 20 (v/v)) and plates were incubated overnight (16 hours) at 4° C. Plates were washed 5 times with 100 μL per well of wash buffer. Next 20 μL per well of secondary antibody was added (1:800 800CW goat anti-rabbit IgG (H+L) antibody, 1:2000 DRAQS in Odyssey buffer with 0.1% Tween 20 (v/v)) and incubated for 1 hour at room temperature. The plates were washed 5 times with 100 μL per well wash buffer then 2 times with 100 μL per well of water. Plates were allowed to dry at room temperature then imaged on the Licor Odyssey machine which measures integrated intensity at 700 nm and 800 nm wavelengths. Both 700 and 800 channels were scanned. Calculations: First, the ratio for each well was determined by: Each plate included fourteen control wells of DMSO only treatment (minimum inhibition) as well as fourteen control wells for maximum inhibition treated with 20 μM of a reference compound. The average of the ratio values for each control type was calculated and used to determine the percent activation for each test well in the plate. Reference compound was serially diluted three-fold in DMSO for a total of nine test concentrations, beginning at 20 μM. Percent inhibition was determined and IC50 curves were generated using triplicate wells per concentration of compound.

In general, IC50 refers to the midpoint of a concentration-inhibition curve. Regarding `CNCCN(C)Cc1cccc(-c2cc(C(=O)N3CCN(C)C(=O)C3)c3cnn(C(C)C)c3n2)c1` [Compound 296], the IC50 in assay [1] amounted to 183 nM; in assay [2] (Homo sapiens, RKO) it was 15700 nM. The like results for `CN(CCN)Cc1cccc(-c2ccc(C(=O)NC3CCOCC3)c(N(C)CC3CC3)c2)c1` [Compound 245] were, in that order, 53.6 nM and 20000 nM. `CNCCN(C)Cc1cccc(-c2cc(-c3ccc(O)cc3)c3cnn(C(C)C)c3n2)c1` [Compound 247]: the IC50 in assay [1] was 54.7 nM; in assay [2] (Homo sapiens, RKO) it was 20000 nM. The like results for `Cc1c(C(=O)NC2CCOCC2)cc(-c2cccc(CN(C)CCN)c2)cc1N(C)CC1CC1` [Compound 243] were, in that order, 52 nM and 20000 nM. Regarding `CNCCN(C)Cc1cccc(-c2cc(C(=O)NCc3cc(C)on3)c3cnn(C(C)C)c3n2)c1` [Compound 229], in assay [2], the IC50 stood at 2250 nM. `CNCCN(C)Cc1cccc(-c2cc(NC(=O)OC)c3cnn(C(C)C)c3n2)c1` [Compound 190]: the IC50 in assay [1] came out at 12.5 nM; in assay [2] (Homo sapiens, RKO) it was 2460 nM.

With `CNCCN(C)Cc1cccc(-c2cc(C(=O)NCc3cccc(F)c3)c3cnn(C(C)C)c3n2)c1` [Compound 259], the IC50 worked out at 67 nM in assay [1] and 20000 nM in assay [2] (Homo sapiens, RKO). As for `CNCCN(C)Cc1cccc(-c2cc(C(=O)N(C)Cc3cccnc3)c3cnn(C(C)C)c3n2)c1` [Compound 294], the IC50 in assay [1] is 177 nM; in assay [2] (Homo sapiens, RKO), 4020 nM. In the case of `CCOC(=O)Nc1cc(-c2cccc(CN(C)CCN)c2)nc2c1cnn2C(C)C` [Compound 173], the IC50 was determined as 5.93 nM in assay [1] and 3310 nM in assay [2] (Homo sapiens, RKO). Consider `CNC(=O)c1cc(-c2cccc(CNCCN)c2)nc2c1cnn2C(C)C` [Compound 311], for which the IC50 is 293 nM in assay [1] and 14200 nM in assay [2] (Homo sapiens, RKO). For the molecule `CNCCN(C)Cc1cccc(-c2cc(C(=O)NCC3CCOCC3)c3cnn(CC(F)(F)F)c3n2)c1` [Compound 277], the IC50 came out at 105 nM in assay [1] and 7200 nM in assay [2] (Homo sapiens, RKO). For the molecule `CNCCN(C)Cc1cccc(-c2cc(-c3ccc(F)cc3)c3cnn(C(C)C)c3n2)c1` [Compound 275], the IC50 came to 92.8 nM in assay [1] and 20000 nM in assay [2] (Homo sapiens, RKO). The like results for `CC(C)n1cc2c(C(=O)NCC3CCOCC3)cc(-c3cccc(CN(C)CCN)c3)nc2n1` [Compound 297] were, in that order, 189 nM and 20000 nM.

As to `CC(C)n1ncc2c(C(=O)NCc3cn(C)cn3)cc(-c3cccc(CN(C)CCN)c3)nc21` [Compound 262], the IC50 in assay [1] worked out at 70.2 nM; in assay [2] (Homo sapiens, RKO), 10200 nM. The like results for `CNCCN(C)Cc1cccc(-c2cc(C(=O)NCc3cnc[nH]3)c3cnn(C(C)C)c3n2)c1` [Compound 231] were, in that order, 42.2 nM and 20000 nM. On to `CNCCN(C)Cc1cccc(-c2cc(C(=O)NCC3CCOCC3)c3cnn(C)c3n2)c1` [Compound 289], for which the IC50 in assay [1] turned out to be 163 nM; in assay [2] (Homo sapiens, RKO), 16900 nM.

Consider `CN(CCN)Cc1cccc(-c2cc(C(=O)NCC3CCOCC3)cc(N(C)CC3CC3)c2)c1` [Compound 208], for which the IC50 was found to be 20.7 nM in assay [1] and 5540 nM in assay [2] (Homo sapiens, RKO). The like results for `CNCCN(C)Cc1cccc(-c2cc(C(=O)N3CCC3)c3cnn(C(C)C)c3n2)c1` [Compound 252] were, in that order, 59.3 nM and 20000 nM. Take `CC(C)n1ncc2c(C(=O)NCc3nccn3C)cc(-c3cccc(CN(C)CCN)c3)nc21` [Compound 215]: the IC50 in assay [1] was found to be 29.1 nM; in assay [2] (Homo sapiens, RKO), 2240 nM. For `CC(C)n1ncc2c(C(=O)N(C)C3CCOCC3)cc(-c3cccc(CN(C)CCN)c3)nc21` [Compound 265], in that order: 74.4 nM and 10300 nM.

For the molecule `CNCCN(C)Cc1cccc(-c2cc(C(=O)NCc3ccc(F)cc3)c3cnn(C(C)C)c3n2)c1` [Compound 276], the IC50 in assay [1] came to 94.1 nM; in assay [2] (Homo sapiens, RKO), 20000 nM. The like results for `CNCCN(C)Cc1cccc(-c2cc(C(=O)NC3CCOC3)c3cnn(C(C)C)c3n2)c1` (centres unmarked) [Compound 234] were, in that order, 43.3 nM and 2760 nM. As to `CNCCN(C)Cc1cccc(-c2cc(C(=O)NCc3cc(C)on3)c3cnn(C(C)C)c3n2)c1` [Compound 186], the IC50 in assay [2] (Homo sapiens, RKO) worked out at 1400 nM.

The record behind these values is US20170280720A1, “ARGININE […] INHIBITORS AND USES THEREOF” (EPIZYME, INC., priority 2014, published 2017).
